Assays:
Experiment in all cases: KINOMEscan competition binding
Conditions in all cases: compound 10.0 µM
[1] = target: MAPK12 (human) (UniProt P53778)
[2] = target: MAP2K5 (human) (UniProt Q13163)
[3] = test system: CPK1 (P.falciparum)
[4] = target: CDK13 (human) (UniProt Q14004)
[5] = target: TIE1 (human) (UniProt P35590)
[6] = target: MAP3K5 (human) (UniProt Q99683)
[7] = target: MAP3K10 (human) (UniProt Q02779)
[8] = target: KDR (human) (UniProt P35968)
[9] = target: CIT (human) (UniProt O14578)
[10] = target: TEC (human) (UniProt P42680)
[11] = target: TNIK (human) (UniProt Q9UKE5)
[12] = target: ZAP70 (human) (UniProt P43403)
[13] = target: HIPK1 (human) (UniProt Q86Z02)
[14] = target: PLK1 (human) (UniProt P53350)
[15] = target: FGFR4 (human) (UniProt P22455)
[16] = target: PRKAA2 (human) (UniProt P54646)
[17] = target: MAPK7 (human) (UniProt Q13164)
[18] = target: DAPK3 (human) (UniProt O43293)
[19] = target: MAPK4 (human) (UniProt P31152)
[20] = target: FLT4 (human) (UniProt P35916)
[21] = target: BRSK2 (human) (UniProt Q8IWQ3)
[22] = target: PHKG2 (human) (UniProt P15735)
[23] = target: PIK3CG (human) (UniProt P48736)
[24] = target: ADCK3 (human) (UniProt Q8NI60)
[25] = target: PLK2 (human) (UniProt Q9NYY3)
[26] = target: MAP4K5 (human) (UniProt Q9Y4K4)
[27] = target: CDK4 CCND3 (human) (UniProt P11802+P30281)
[28] = target: STK11 (human) (UniProt Q15831)
[29] = target: AXL (human) (UniProt P30530)
[30] = target: EPHA3 (human) (UniProt P29320)
[31] = target: PIK3CA (human) (UniProt P42336)
[32] = target: PAK1 (human) (UniProt Q13153)
[33] = target: BMPR1B (human) (UniProt O00238)
[34] = target: EPHA7 (human) (UniProt Q15375)
[35] = target: RET (human) (UniProt P07949)
[36] = target: CLK1 (human) (UniProt P49759)
[37] = target: PRKAA1 (human) (UniProt Q13131)
[38] = target: PTK6 (human) (UniProt Q13882)
[39] = target: CDC2L2 (human) (UniProt Q9UQ88)
[40] = target: MYLK3 (human) (UniProt Q32MK0)
[41] = target: BMPR1A (human) (UniProt P36894)

TIE1 (human), sequence (P35590 whole entry, looked up): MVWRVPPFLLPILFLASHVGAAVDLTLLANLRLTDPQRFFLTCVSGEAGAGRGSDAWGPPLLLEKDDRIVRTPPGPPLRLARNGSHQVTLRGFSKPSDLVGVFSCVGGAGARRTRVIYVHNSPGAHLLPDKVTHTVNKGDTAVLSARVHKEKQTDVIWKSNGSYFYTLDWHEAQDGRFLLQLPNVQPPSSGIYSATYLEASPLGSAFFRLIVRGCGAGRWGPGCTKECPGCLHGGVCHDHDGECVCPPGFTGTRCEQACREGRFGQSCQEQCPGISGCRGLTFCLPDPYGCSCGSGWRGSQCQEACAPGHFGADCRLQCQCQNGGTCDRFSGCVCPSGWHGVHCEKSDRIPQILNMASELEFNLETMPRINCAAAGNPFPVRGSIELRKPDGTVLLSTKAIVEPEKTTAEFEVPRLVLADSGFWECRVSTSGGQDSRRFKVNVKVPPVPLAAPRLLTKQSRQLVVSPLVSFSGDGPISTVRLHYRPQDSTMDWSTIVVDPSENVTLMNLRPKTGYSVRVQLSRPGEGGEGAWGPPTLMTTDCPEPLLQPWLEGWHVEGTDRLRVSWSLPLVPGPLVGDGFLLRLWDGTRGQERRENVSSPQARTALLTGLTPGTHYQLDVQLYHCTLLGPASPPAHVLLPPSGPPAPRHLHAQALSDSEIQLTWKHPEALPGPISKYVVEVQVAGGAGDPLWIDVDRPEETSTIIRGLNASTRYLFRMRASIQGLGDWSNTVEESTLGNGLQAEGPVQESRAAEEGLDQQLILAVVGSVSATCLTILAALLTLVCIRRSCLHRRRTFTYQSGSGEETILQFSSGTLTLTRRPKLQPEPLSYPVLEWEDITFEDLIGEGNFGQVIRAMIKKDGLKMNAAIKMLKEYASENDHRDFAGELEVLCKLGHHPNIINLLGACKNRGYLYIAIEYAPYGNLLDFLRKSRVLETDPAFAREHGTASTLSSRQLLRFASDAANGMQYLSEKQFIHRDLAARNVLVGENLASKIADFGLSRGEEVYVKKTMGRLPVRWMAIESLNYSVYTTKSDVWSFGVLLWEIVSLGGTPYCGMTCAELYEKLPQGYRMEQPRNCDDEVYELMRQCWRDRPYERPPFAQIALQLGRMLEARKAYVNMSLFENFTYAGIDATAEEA
MAP3K5 (human), sequence (Q99683 whole entry, looked up): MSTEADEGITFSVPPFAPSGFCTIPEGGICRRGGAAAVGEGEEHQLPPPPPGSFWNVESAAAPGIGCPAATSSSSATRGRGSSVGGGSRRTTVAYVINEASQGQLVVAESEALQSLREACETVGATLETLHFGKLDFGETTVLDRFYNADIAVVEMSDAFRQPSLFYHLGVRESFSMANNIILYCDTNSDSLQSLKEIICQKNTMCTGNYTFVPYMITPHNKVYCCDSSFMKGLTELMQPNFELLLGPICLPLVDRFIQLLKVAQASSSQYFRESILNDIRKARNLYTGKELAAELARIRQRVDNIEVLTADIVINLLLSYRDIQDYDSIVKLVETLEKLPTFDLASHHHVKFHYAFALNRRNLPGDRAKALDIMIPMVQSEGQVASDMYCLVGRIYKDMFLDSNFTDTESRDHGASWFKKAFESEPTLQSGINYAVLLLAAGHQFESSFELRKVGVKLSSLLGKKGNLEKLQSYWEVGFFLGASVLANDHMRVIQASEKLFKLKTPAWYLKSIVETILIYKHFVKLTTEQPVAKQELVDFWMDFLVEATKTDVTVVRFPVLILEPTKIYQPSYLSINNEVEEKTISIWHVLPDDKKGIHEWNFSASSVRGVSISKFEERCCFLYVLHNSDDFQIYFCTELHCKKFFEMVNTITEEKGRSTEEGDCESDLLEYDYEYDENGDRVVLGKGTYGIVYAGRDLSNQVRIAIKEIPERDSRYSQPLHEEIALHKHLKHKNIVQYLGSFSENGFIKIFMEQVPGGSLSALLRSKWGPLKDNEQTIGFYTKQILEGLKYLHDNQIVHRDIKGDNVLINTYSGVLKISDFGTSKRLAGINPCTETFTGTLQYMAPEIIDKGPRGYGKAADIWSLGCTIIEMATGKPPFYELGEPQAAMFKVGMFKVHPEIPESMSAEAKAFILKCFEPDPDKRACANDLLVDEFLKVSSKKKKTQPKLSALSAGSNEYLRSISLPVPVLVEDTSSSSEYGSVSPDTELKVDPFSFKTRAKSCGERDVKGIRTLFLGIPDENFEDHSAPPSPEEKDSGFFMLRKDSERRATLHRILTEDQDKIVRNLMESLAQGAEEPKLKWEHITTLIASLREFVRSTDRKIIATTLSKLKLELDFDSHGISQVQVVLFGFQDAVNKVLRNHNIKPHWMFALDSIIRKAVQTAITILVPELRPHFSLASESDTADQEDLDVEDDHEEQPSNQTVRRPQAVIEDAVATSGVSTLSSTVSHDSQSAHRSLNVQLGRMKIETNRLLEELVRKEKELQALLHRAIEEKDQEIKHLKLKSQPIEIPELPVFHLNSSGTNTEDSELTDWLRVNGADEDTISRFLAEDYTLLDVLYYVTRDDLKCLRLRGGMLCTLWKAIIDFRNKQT
AXL (human), sequence (P30530 whole entry, looked up): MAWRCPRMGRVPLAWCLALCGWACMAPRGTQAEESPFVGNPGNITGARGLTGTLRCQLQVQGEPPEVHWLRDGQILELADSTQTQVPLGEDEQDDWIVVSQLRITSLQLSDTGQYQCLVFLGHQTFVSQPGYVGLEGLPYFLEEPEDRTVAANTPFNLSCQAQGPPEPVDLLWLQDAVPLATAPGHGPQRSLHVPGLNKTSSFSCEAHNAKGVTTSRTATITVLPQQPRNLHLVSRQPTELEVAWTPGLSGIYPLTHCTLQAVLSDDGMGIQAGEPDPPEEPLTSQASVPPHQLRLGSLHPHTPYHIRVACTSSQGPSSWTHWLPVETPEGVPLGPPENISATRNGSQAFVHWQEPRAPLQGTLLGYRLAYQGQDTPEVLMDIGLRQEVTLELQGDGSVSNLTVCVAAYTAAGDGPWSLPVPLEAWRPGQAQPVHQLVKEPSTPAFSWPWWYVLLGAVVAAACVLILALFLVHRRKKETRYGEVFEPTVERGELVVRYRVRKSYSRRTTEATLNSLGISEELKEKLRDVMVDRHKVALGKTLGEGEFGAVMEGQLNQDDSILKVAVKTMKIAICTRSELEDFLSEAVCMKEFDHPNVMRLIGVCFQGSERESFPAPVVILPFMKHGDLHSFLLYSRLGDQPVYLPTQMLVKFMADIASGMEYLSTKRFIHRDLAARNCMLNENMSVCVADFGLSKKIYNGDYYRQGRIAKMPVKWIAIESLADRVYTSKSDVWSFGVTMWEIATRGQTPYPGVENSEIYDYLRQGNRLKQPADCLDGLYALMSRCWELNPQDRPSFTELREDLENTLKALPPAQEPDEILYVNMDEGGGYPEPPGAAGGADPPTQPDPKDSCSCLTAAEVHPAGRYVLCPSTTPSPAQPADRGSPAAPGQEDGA
PRKAA2 (human), sequence (P54646 whole entry, looked up): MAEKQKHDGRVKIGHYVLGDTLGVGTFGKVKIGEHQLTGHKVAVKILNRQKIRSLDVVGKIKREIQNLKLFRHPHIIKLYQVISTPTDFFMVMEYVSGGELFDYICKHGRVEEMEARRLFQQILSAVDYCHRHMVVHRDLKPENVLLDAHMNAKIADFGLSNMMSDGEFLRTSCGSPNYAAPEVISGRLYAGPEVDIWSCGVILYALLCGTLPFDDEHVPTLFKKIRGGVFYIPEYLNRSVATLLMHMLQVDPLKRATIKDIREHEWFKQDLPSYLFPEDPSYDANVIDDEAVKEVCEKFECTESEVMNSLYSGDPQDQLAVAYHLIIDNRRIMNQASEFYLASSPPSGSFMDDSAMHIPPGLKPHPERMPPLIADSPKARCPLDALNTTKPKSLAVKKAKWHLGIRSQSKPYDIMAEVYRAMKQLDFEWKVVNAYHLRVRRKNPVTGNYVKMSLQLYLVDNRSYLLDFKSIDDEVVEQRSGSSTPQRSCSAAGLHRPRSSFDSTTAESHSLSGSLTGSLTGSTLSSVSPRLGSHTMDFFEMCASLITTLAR
CDC2L2 (human), sequence (Q9UQ88 whole entry, looked up): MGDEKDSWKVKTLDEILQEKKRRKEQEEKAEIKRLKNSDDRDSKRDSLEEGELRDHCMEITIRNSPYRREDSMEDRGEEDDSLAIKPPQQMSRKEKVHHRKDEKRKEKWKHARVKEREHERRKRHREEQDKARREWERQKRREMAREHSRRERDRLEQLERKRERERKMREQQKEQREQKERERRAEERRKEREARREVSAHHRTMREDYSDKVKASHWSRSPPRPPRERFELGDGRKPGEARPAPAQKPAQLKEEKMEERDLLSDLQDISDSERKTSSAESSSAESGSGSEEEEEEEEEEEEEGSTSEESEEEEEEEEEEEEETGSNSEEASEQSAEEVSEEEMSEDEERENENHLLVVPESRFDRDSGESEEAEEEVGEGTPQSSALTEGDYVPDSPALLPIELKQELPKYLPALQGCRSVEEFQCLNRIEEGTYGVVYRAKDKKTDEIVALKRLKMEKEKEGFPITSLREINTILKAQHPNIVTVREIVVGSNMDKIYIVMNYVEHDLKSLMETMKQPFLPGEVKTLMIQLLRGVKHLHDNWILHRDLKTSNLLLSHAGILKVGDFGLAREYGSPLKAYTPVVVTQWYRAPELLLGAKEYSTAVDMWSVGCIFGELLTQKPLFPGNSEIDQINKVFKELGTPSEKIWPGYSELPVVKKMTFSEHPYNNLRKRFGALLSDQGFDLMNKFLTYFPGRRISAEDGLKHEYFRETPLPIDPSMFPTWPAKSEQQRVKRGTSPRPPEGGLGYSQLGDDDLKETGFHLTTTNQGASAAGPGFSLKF

`CN(C)C/C=C/C(=O)Nc1ccc(C(=O)Nc2cccc(Nc3nccc(-c4cccnc4)n3)c2)cc1` was tested, and the kinase still bound, per cent of control [1] was 76%, the kinase still bound, per cent of control [2] was 41% and the kinase still bound, per cent of control [3] was 100%. The kinase still bound, per cent of control [4] was 86%, the kinase still bound, per cent of control [5] was 55% and the kinase still bound, per cent of control [6] was 100%. It also gave a kinase still bound, per cent of control [7] of 94%, a kinase still bound, per cent of control [8] of 36% and a kinase still bound, per cent of control [9] of 38%. The kinase still bound, per cent of control [10] was 100%, the kinase still bound, per cent of control [11] was 36% and the kinase still bound, per cent of control [12] was 85%. It also gave a kinase still bound, per cent of control [13] of 6%, a kinase still bound, per cent of control [14] of 100% and a kinase still bound, per cent of control [15] of 100%. For the same compound, the kinase still bound, per cent of control [16] was 95%, the kinase still bound, per cent of control [17] was 100% and the kinase still bound, per cent of control [18] was 62%. It also gave a kinase still bound, per cent of control [19] of 19%, a kinase still bound, per cent of control [20] of 97% and a kinase still bound, per cent of control [21] of 88%. For the same compound, the kinase still bound, per cent of control [22] was 56%, the kinase still bound, per cent of control [23] was 13% and the kinase still bound, per cent of control [24] was 100%. It also gave a kinase still bound, per cent of control [25] of 81%, a kinase still bound, per cent of control [26] of 59% and a kinase still bound, per cent of control [27] of 100%. It also gave a kinase still bound, per cent of control [28] of 83%, a kinase still bound, per cent of control [29] of 80% and a kinase still bound, per cent of control [30] of 73%. For the same compound, the kinase still bound, per cent of control [31] was 100%, the kinase still bound, per cent of control [32] was 90% and the kinase still bound, per cent of control [33] was 28%. For the same compound, the kinase still bound, per cent of control [34] was 100%, the kinase still bound, per cent of control [35] was 79% and the kinase still bound, per cent of control [36] was 4.6%. It also gave a kinase still bound, per cent of control [37] of 100%, a kinase still bound, per cent of control [38] of 100% and a kinase still bound, per cent of control [39] of 100%. It also gave a kinase still bound, per cent of control [40] of 87% and a kinase still bound, per cent of control [41] of 36%.
With `COc1ccc(N(C(=O)Oc2c(C)cccc2C)c2ccnc(Nc3ccc(N4CCN(C)CC4)cc3)n2)c(OC)c1` the kinase still bound, per cent of control [1] was 75%, the kinase still bound, per cent of control [2] was 0.55% and the kinase still bound, per cent of control [3] was 5%. It also gave a kinase still bound, per cent of control [4] of 100%, a kinase still bound, per cent of control [5] of 5.8% and a kinase still bound, per cent of control [6] of 100%. For the same compound, the kinase still bound, per cent of control [7] was 19%, the kinase still bound, per cent of control [8] was 15% and the kinase still bound, per cent of control [9] was 3.8%. For the same compound, the kinase still bound, per cent of control [10] was 3.7%, the kinase still bound, per cent of control [11] was 37% and the kinase still bound, per cent of control [12] was 79%. For the same compound, the kinase still bound, per cent of control [13] was 100%, the kinase still bound, per cent of control [14] was 100% and the kinase still bound, per cent of control [15] was 7.4%. For the same compound, the kinase still bound, per cent of control [16] was 7.9%, the kinase still bound, per cent of control [17] was 39% and the kinase still bound, per cent of control [18] was 88%. The kinase still bound, per cent of control [19] was 100%, the kinase still bound, per cent of control [20] was 16% and the kinase still bound, per cent of control [21] was 81%. The kinase still bound, per cent of control [22] was 100%, the kinase still bound, per cent of control [23] was 100% and the kinase still bound, per cent of control [24] was 26%. It also gave a kinase still bound, per cent of control [25] of 100%, a kinase still bound, per cent of control [26] of 0.7% and a kinase still bound, per cent of control [27] of 26%. It also gave a kinase still bound, per cent of control [28] of 60%, a kinase still bound, per cent of control [29] of 17% and a kinase still bound, per cent of control [30] of 9.4%. For the same compound, the kinase still bound, per cent of control [31] was 100%, the kinase still bound, per cent of control [32] was 6.8% and the kinase still bound, per cent of control [33] was 80%. The kinase still bound, per cent of control [34] was 26%, the kinase still bound, per cent of control [35] was 0.1% and the kinase still bound, per cent of control [36] was 84%. It also gave a kinase still bound, per cent of control [37] of 23%, a kinase still bound, per cent of control [38] of 0% and a kinase still bound, per cent of control [39] of 42%. It also gave a kinase still bound, per cent of control [40] of 100% and a kinase still bound, per cent of control [41] of 0.1%.
`COc1cc2ncnc(-n3nc(-c4ccccn4)nc3N)c2cc1OC` gave a kinase still bound, per cent of control [1] of 21%, a kinase still bound, per cent of control [2] of 1.1% and a kinase still bound, per cent of control [3] of 1.4%. For the same compound, the kinase still bound, per cent of control [4] was 17%, the kinase still bound, per cent of control [5] was 93% and the kinase still bound, per cent of control [6] was 100%. It also gave a kinase still bound, per cent of control [7] of 62%, a kinase still bound, per cent of control [8] of 52% and a kinase still bound, per cent of control [9] of 30%. It also gave a kinase still bound, per cent of control [10] of 100%, a kinase still bound, per cent of control [11] of 40% and a kinase still bound, per cent of control [12] of 32%. It also gave a kinase still bound, per cent of control [13] of 0.55%, a kinase still bound, per cent of control [14] of 22% and a kinase still bound, per cent of control [15] of 96%. The kinase still bound, per cent of control [16] was 27%, the kinase still bound, per cent of control [17] was 83% and the kinase still bound, per cent of control [18] was 4.6%. It also gave a kinase still bound, per cent of control [19] of 85%, a kinase still bound, per cent of control [20] of 14% and a kinase still bound, per cent of control [21] of 14%. It also gave a kinase still bound, per cent of control [22] of 36%, a kinase still bound, per cent of control [23] of 3.1% and a kinase still bound, per cent of control [24] of 10%. It also gave a kinase still bound, per cent of control [25] of 13%, a kinase still bound, per cent of control [26] of 45% and a kinase still bound, per cent of control [27] of 60%. For the same compound, the kinase still bound, per cent of control [28] was 100%, the kinase still bound, per cent of control [29] was 6% and the kinase still bound, per cent of control [30] was 11%. For the same compound, the kinase still bound, per cent of control [31] was 38%, the kinase still bound, per cent of control [32] was 70% and the kinase still bound, per cent of control [33] was 14%. The kinase still bound, per cent of control [34] was 18%, the kinase still bound, per cent of control [35] was 20% and the kinase still bound, per cent of control [36] was 0.6%. For the same compound, the kinase still bound, per cent of control [37] was 19%, the kinase still bound, per cent of control [38] was 51% and the kinase still bound, per cent of control [39] was 100%. For the same compound, the kinase still bound, per cent of control [40] was 100% and the kinase still bound, per cent of control [41] was 0.3%.

Source: the kinase profiling compilation of Christmann-Franck et al. (2016)
